Source: publication PMC6290023 (Scientific Reports, 2018)
Peptide text beside a SMILES is read from it.

Key:
[1] = Stability of MHP1 in mouse serum (HPLC/MS); format: in vitro ADME; conditions: mouse (CD-1(ICR)) serum, 200 μg/mL MHP1, 37 °C, HPLC UV 210 nm, mean ± SD
Method: Mouse (CD-1(ICR)) serum was obtained from KAC (Kyoto, Japan) and stored below −15 °C until use. MHP1 (2 mg/mL in ultrapure water) was spiked in mouse serum on ice to obtain a final concentration of 200 μg/mL. The serum was incubated at 37 °C and aliquots of the reaction mixture collected at the incubation times 0, 10, 30, and 60 min. Each aliquot was deproteinized with the addition of an ice-cold solvent (acetonitrile: methanol: acetic acid = 500:500:1). The mixtures were left at −20 °C for 20 minutes and stored on ice. After the addition of 1% acetic acid, the mixture was vigorously vortexed and centrifuged (12000 × g, 4 °C, 10 min). The supernatant was injected into the HPLC system and analyzed by reversed-phase chromatography with a water–acetonitrile (0.1% trifluoroacetic acid) linear gradient elution. MHP1 was detected by ultraviolet light at 210 nm.

LPS-stimulated MG6 cells = conditions: peptide incubated at 37 °C for 24 h; cited from earlier work
Method: This might be a result of the key sequence of MHP1 being preserved owing to N-terminus acetylation, which generally makes the peptide resistant to protease degradation. The difference in causing sedimentation at 37 °C for 24 h between MHP1-Ac and MHP1-AcN was dependent on the existence of C-terminal amidation, which has been reported to promote the stabilization of the secondary structure of the peptide.

TLR2, 7, 8 = conditions: cited from earlier work
Description: (§1) To solve this problem, we developed a novel peptide “microglial healing peptide1 (MHP1)”, which is a partial peptide of RANKL, to inhibit […] inflammation without activating osteoclast. The binding sites of RANKL for its receptor RANK responsible for osteoclastogenesis were not included in the MHP1 sequence, but other binding sites that are unrelated to osteoclastogenesis (DE and EF loops) were included. […] The sequence of MHP1 is “[…]” and we demonstrat ...

[2] = system: mouse osteoclast precursor cells; conditions: cited from earlier work
Description: as §1

tMCAo model in mice = conditions: cited from earlier work
Method: As we have previously shown that intravenous injection of MHP1 (150 μL, 2 mg/ml), started from 6 hrs after tMCAo and followed by subcutaneous injection with Alzet pump (200 μL, 2 mg/ml) for 24 h, is effective, we studied whether a lower dose of MHP1-AcN was effective in reducing ischemic injury.

Structure (SMILES): CC[C@H](C)[C@H](NC(=O)[C@H](CO)NC(=O)[C@@H](NC(=O)[C@H](CCCCN)NC(=O)[C@@H](NC(=O)[C@@H](NC(=O)[C@H](Cc1ccc(O)cc1)NC(=O)[C@@H](NC(=O)[C@H](CCSC)NC(=O)[C@@H](N)CC(C)C)C(C)C)C(C)C)C(C)C)[C@@H](C)O)C(=O)N[C@@H](CCCCN)C(=O)N[C@H](C(=O)N1CCC[C@H]1C(=O)N[C@@H](CO)C(=O)N[C@@H](CO)C(=O)N[C@@H](Cc1c[nH]cn1)C(=O)N[C@@H](CC(N)=O)C(=O)N[C@@H](CC(C)C)C(=O)N[C@@H](CCSC)C(=O)N[C@@H](CCCCN)C(=O)NCC(=O)NCC(=O)N[C@@H](CO)C(=O)N[C@H](C(=O)N[C@@H](CCCCN)C(=O)N[C@@H](CC(N)=O)C(=O)N[C@@H](Cc1c[nH]c2ccccc12)C(=O)N[C@@H](CO)C(=O)NCC(=O)N[C@@H](CC(N)=O)C(=O)O)[C@@H](C)O)[C@@H](C)CC [MHP1] (H-LMVYVVKTSIKIPSSHNLMKGGSTKNWSGN-OH)
- remaining at 10 min, 200 μg/mL ([1]; 10 min, read-out: residual MHP1 remaining intact in mouse serum): 83 ± 5.9%
- residual MHP1 remaining intact in mouse serum ([1]; 30 min): 50.3 ± 3.6%
- remaining at 0.5 h, 200 μg/mL ([1]; 30 min, read-out: residual MHP1 remaining intact in mouse serum): 50%
- remaining at 1 h, 200 μg/mL ([1]; 60 min, read-out: residual MHP1 remaining intact in mouse serum): 27.5 ± 3.2%
- anti-inflammatory effects after incubation at 37 °C for 24 h (LPS-stimulated MG6 cells): loses its anti-inflammatory effects
- effect on TLR2, 7, 8-induced inflammations (TLR2, 7, 8): inhibited
- effect on RANKL-induced osteoclast activation [2]: inhibited RANKL-induced osteoclast activation
- effect on osteoclast activation (peptide alone) [2]: did not affect osteoclast activation
- efficacy in tMCAo (tMCAo model in mice; i.v. 150 μL, 2 mg/ml from 6 hrs after tMCAo, then s.c. Alzet pump 200 μL, 2 mg/ml for 24 h): effective
- ischemic injury in tMCAO model (tMCAo model in mice; intracerebroventricularly 4 h, or intravenously 4 or 6 h post-ischemia): reduced
